≈ marks a conversion by molar mass, not a printed value. Read-outs that look alike come from different tables or passages of the source. Where a SMILES comes first, the peptide text is derived from it. Where no end group is shown, it is not given here. [ ]: non-standard residue; d: D form.
Tests used:
P. aeruginosa = test: MIC, broth dilution; assay type: cell-based, Pseudomonas aeruginosa KCCM 11328; conditions: 16 h, MH media, read-out: Minimal Inhibitory Concentration (MIC)
Text: (§1) Escherichia coli KCTC 1682 was obtained from the Korean Collection for Type Cultures (KCTC) (Jeongeup-si, Korea), Acinetobacter baumannii KCCM 40203, Pseudomonas aeruginosa KCCM 11328 from the Korea Culture Center of Microorganisms (KCCM) (Seoul, Korea). Klebsiella pneumoniae NCCP 16054 were obtained from the National Culture Collection for Pathogens (NCCP) (Osong, Korea). Additionally, two carbapenem-resistant E. coli (CREC E1 and E2), 11 carbapenem-resistant A. baumannii (CRAB C0–C10) and two carbapenem-resistant K. pneumoniae (CRKP K1 and K2) were isolated from the patients, who presented symptoms and signs of infection at Korea University Anam Hospital (Seoul, Korea) (IRB registration no. 2020AN0157, 4 March 2021). CRAB C0–C10 have the OXA-23 gene with carbapenem-resistance.
(§2) The minimum inhibitory concentrations (MIC) were determined using broth dilution method. Briefly, all the mentioned bacterial strains were grown overnight at 37 °C by Muller–Hinton (MH) media. […] After 16 h incubation, the bacterial growth was read at 600 nm using a SpectraMAX microplate reader (Molecular Devices, San Jose, CA, USA).

E. coli [1] = test: MIC, broth dilution; assay type: cell-based, Escherichia coli KCTC 1682; conditions: E. coli; 16 h, MH media; read-out: Minimal Inhibitory Concentration (MIC)
Text: as §1, §2

CRAB C1 = test: microbe, parasite or virus in culture; conditions: CRAB C1
Text: as §1, §2

K. pneumoniae = test: microbe, parasite or virus in culture; conditions: 16 h
Text: as §1, §2

CRAB C8 = test: microbe, parasite or virus in culture; conditions: CRAB C8
Text: as §1, §2

CREC E1 = test: MIC, broth dilution; assay type: cell-based, carbapenem-resistant E. coli; conditions: read-out: Minimal Inhibitory Concentration (MIC)
Text: as §1, §2

CREC E2 = test: MIC, broth dilution; assay type: cell-based, carbapenem-resistant E. coli; conditions: read-out: Minimal Inhibitory Concentration (MIC)
Text: as §1, §2

CRAB C9 = test: MIC, broth dilution; assay type: cell-based, carbapenem-resistant A. baumannii; conditions: read-out: Minimal Inhibitory Concentration (MIC)
Text: as §1, §2

CRAB C0 [2] = test: MIC, broth dilution; assay type: cell-based, carbapenem-resistant A. baumannii; conditions: read-out: Minimal Inhibitory Concentration (MIC)
Text: as §1, §2

CRAB C3 = test: MIC, broth dilution; assay type: cell-based, carbapenem-resistant A. baumannii; conditions: read-out: Minimal Inhibitory Concentration (MIC)
Text: as §1, §2

CRAB C6 = test: MIC, broth dilution; assay type: cell-based, carbapenem-resistant A. baumannii; conditions: read-out: Minimal Inhibitory Concentration (MIC)
Text: as §1, §2

CRAB C7 = test: MIC, broth dilution; assay type: cell-based, carbapenem-resistant A. baumannii; conditions: read-out: Minimal Inhibitory Concentration (MIC)
Text: as §1, §2

CRAB C5 = test: MIC, broth dilution; assay type: cell-based, carbapenem-resistant A. baumannii; conditions: read-out: Minimal Inhibitory Concentration (MIC)
Text: as §1, §2

CRAB C2 = test: MIC, broth dilution; assay type: cell-based, carbapenem-resistant A. baumannii; conditions: read-out: Minimal Inhibitory Concentration (MIC)
Text: as §1, §2

CRAB C10 = test: MIC, broth dilution; assay type: cell-based, carbapenem-resistant A. baumannii; conditions: read-out: Minimal Inhibitory Concentration (MIC)
Text: as §1, §2

CRAB C4 = test: MIC, broth dilution; assay type: cell-based, carbapenem-resistant A. baumannii; conditions: read-out: Minimal Inhibitory Concentration (MIC)
Text: as §1, §2

[3] = system: RAW 264.7 murine macrophage cells; test: Cytotoxicity, WST-8 assay; assay type: cell-based, mouse; conditions: 24 h
Method: (§3) Figure 6 In vitro cytotoxicity of Pro9-3 and their analogues. (A) Dose-response curve represent the hemolytic activity of peptides against sheep red blood cell (sRBC). Concentration-dependent (0–100 μM) toxic effects induced by peptides on (B) RAW 264.7 murine macrophage cells and (C) human kidney (HK)-2 cells for 24 h. Melittin was used as a control. Statistical analysis was performed using two-way analysis of variance (ANOVA) with Dunnett’s comparison test. Values are expressed as mean ± SEM of three independent experiments. * p < 0.05, ** p < 0.01, *** p < 0.001, and ns, non-significant compared with the control.
(§4) RAW 264.7 mouse macrophage cells and Human kidney (HK)-2 cells were obtained from Korean cell line bank (Seoul, Korea) and the cells were maintained in DMEM culture media (Thermo Fischer Scientific Inc., Waltham, MA, USA) supplemented with 10% fetal bovine serum, 1% penicillin/streptomycin at 37 °C in a humidified 5% CO2 incubator. The cytotoxicity of the peptides was analyzed using WST-8 cell proliferation assay (Biomax Co, Ltd., Seoul, Korea), and the experiment was performed according to the kit protocol. Briefly, cells (1 × 10^4) were seeded in 96-well plate and the peptides treatment (0–100 μM) were initiated at 80% confluency and then for 24 h. After incubation, WST-8 reagent was added and the change in absorbance was read at 450 nm against reagent blank, and values are expressed as percent cell survival.

CRAB C0 outer membrane = test: Outer membrane permeability, NPN uptake; assay type: cell-based, carbapenem-resistant A. baumannii
Method: The effect of peptides on the disturbance of CRAB C0 outer membrane was analyzed using 1-N-phenylnaphthylamine (NPN, Sigma-Aldrich, St. Louis, MO, USA) uptake assay, as previously described. Briefly, CRAB C0 cell suspensions were mixed with NPN (1 mM) and the background fluorescence was recorded for subtraction (excitation λ = 350 nm, emission λ = 420 nm) using RF-6000PC fluorescent spectrophotometer (Shimadzu Scientific Instruments, Kyoto, Japan). Changes in the NPN fluorescence were recorded after addition of different concentrations of peptides and values are expressed as—fluorescence intensity (A.U.).

CRKP K2 = test: MIC, broth dilution; assay type: cell-based, carbapenem-resistant K. pneumoniae; conditions: read-out: Minimal Inhibitory Concentration (MIC)
Text: as §1, §2

CRKP K1 = test: MIC, broth dilution; assay type: cell-based, carbapenem-resistant K. pneumoniae; conditions: read-out: Minimal Inhibitory Concentration (MIC)
Text: as §1, §2

CRAB C0 [4] = assay type: cell-based, carbapenem-resistant A. baumannii; conditions: peptide pre-incubated 6 h at 37 °C
Method: (§5) All the peptides at their MICs were pre-incubated with proteolytic enzymes such as trypsin and α-chymotrypsin (10,000:1; peptide: enzyme ratio) for 6 h at 37 °C. Then, 100 μL of peptide-protease cocktail was added to the 100 µL bacterial suspension (E. coli, A. baumannii and CRAB C0, 2 × 10^5 CFU/mL) and further incubated for 16 h at 37 °C. Bacterial suspension without peptide and protease served as negative control. The analysis was repeated at three times using independent experiments, and the degree of bacterial growth was measured at 600 nm using a microplate reader.

[5] = system: sheep red blood cells (sRBC); test: Hemolytic assay; assay type: cell-based; conditions: 100 μM
Method: The peptide-induced toxicity was determined by hemolytic against Sheep red blood cells (sRBC). Briefly, Fresh sRBC were washed at least three times with phosphate-buffered saline (PBS) and the debris were removed by centrifugation (1000× g for 5 min, 4 °C). All the peptides including melittin control (0.2–100 μM) and positive control (1% (v/v) triton X-100) were incubated with 4% (v/v) sRBC for 1 h at 37 °C followed by centrifugation at 1000× g for 5 min. The supernatant was measured at 405 nm using a microplate reader.

[6] = system: human kidney (HK)-2 cells; test: Cytotoxicity, WST-8 assay; assay type: cell-based; conditions: 24 h; for Toxicity in HK-2 cells: up to 100 μM
Method: as §3, §4

A. baumannii [7] = test: MIC, broth dilution; assay type: cell-based, Acinetobacter baumannii KCCM 40203; conditions: 16 h, MH media, read-out: Minimal Inhibitory Concentration (MIC)
Text: as §1, §2

E. coli [8] = assay type: cell-based, Escherichia coli; conditions: peptide pre-incubated 6 h at 37 °C
Method: as §5

A. baumannii [9] = assay type: cell-based, Acinetobacter baumannii; conditions: peptide pre-incubated 6 h at 37 °C
Method: as §5

Compound	MIC (P. aeruginosa)	MIC (E. coli [1])	Minimal Inhibitory Concentration (MIC) (CRAB C1)	Minimal Inhibitory Concentration (MIC) (CRAB C8)	MIC (CREC E1)	MIC (CREC E2)	MIC (CRAB C9)	MIC (CRAB C0 [2])	MIC (CRAB C3)	MIC (CRAB C6)	MIC (CRAB C7)	MIC (CRAB C5)	MIC (CRAB C2)	MIC (CRAB C10)	MIC (CRAB C4)	MIC (CRKP K2)	MIC (CRKP K1)	Minimal Inhibitory Concentration (MIC) (CRAB C0 [4]; CRAB C0 + Trypsin)	Minimal Inhibitory Concentration (MIC) (CRAB C0 [4]; CRAB C0 + α-Chymotrypsin)	Hemolytic activity [5]	other results
CC[C@@H](C)[C@@H](NC(=O)[C@@H](C)NC(=O)[C@@H](CC(C)C)NC(=O)[C@@H](Cc1c[nH]c2ccccc12)NC(=O)[C@@H](CC(C)C)NC(=O)[C@H](N)CCCNC(=N)N)C(=O)N[C@H](Cc1c[nH]c2ccccc12)C(=O)N[C@H](CCCNC(=N)N)C(=O)N[C@H](CCCNC(=N)N)C(N)=O [Pro9-3D, rlwlaiwrr-NH2] (H-[dR][dL][dW][dL][dA][dI][dW][dR][dR]-NH2)	8 µM (≈ 10.1 µg/mL)	8 µM (≈ 10.1 µg/mL)	8 µM	8 µM	8 µM (≈ 10.1 µg/mL)	8 µM (≈ 10.1 µg/mL)	8 µM (≈ 10.1 µg/mL)	4 µM (≈ 5.07 µg/mL)	8 µM (≈ 10.1 µg/mL)	8 µM (≈ 10.1 µg/mL)	8 µM (≈ 10.1 µg/mL)	8 µM (≈ 10.1 µg/mL)	8 µM (≈ 10.1 µg/mL)	8 µM (≈ 10.1 µg/mL)	8 µM (≈ 10.1 µg/mL)	8 µM (≈ 10.1 µg/mL)	16 µM (≈ 20.3 µg/mL)	4 µM	4 µM	1.9%	Minimal Inhibitory Concentration (MIC) (K. pneumoniae): 8 µM; Toxicity in RAW 264.7 cells ([3]; 100 μM): 44.5%; NPN uptake (outer membrane permeabilization) (CRAB C0 outer membrane): greater NPN uptake than their L-form peptides; Toxicity in human kidney (HK)-2 cells ([6]; 100 μM): 22.9%; MIC (A. baumannii [7]): 4 µM (≈ 5.07 µg/mL)
RLWLAIWRR-NH2 [Pro9-3]	64 µM	16 µM	16 µM	16 µM	16 µM	16 µM	16 µM	8 µM	16 µM	16 µM	16 µM	16 µM	16 µM	16 µM	16 µM	64 µM	64 µM	>64 µM	>64 µM	2.5%	Minimal Inhibitory Concentration (MIC) (K. pneumoniae): 64 µM; Toxicity in RAW 264.7 cells ([3]; up to 100 μM): neither R-Pro9-3 nor Pro9-3 (parent) showed toxicity; Toxicity in HK-2 cells [6]: neither R-Pro9-3 nor Pro9-3 (parent) showed toxicity; MIC (A. baumannii [7]): 16 µM
RRWIALWLR-NH2 [R-Pro9-3]	64 µM	16 µM	32 µM	32 µM	16 µM	16 µM	16 µM	8 µM	32 µM	32 µM	32 µM	32 µM	32 µM	16 µM	32 µM	32 µM	32 µM	64 µM	64 µM	3.4%	Minimal Inhibitory Concentration (MIC) (E. coli [8]; E. coli + Trypsin): >64 µM; Minimal Inhibitory Concentration (MIC) (E. coli [8]; E. coli + α-Chymotrypsin): 64 µM; Minimal Inhibitory Concentration (MIC) (K. pneumoniae; K. pneumoniae, MH media): 32 µM; Toxicity in RAW 264.7 cells ([3]; up to 100 μM): neither R-Pro9-3 nor Pro9-3 (parent) showed toxicity; Minimal Inhibitory Concentration (MIC) (A. baumannii [9]; A. baumannii + Trypsin): >64 µM; Minimal Inhibitory Concentration (MIC) (A. baumannii [9]; A. baumannii + α-Chymotrypsin): >64 µM; Toxicity in HK-2 cells [6]: neither R-Pro9-3 nor Pro9-3 (parent) showed toxicity; MIC (A. baumannii [7]): 16 µM
